According to US8975234B2, “Anti-bacterial infection, inflammation, and leukemia composition and use thereof” (priority 2011, dated 2015):
≈ marks a conversion by molar mass, not a printed value. Where two headings read alike, the source gives them in different places.

Assays:
[1] = system: MSSA (Methicillin-susceptible Staphylococcus aureus); assay: Minimum inhibitory concentration (broth microdilution) and FIC index; assay type: cell-based
Description: (§1) A serial of twofold dilution of the tested antibiotics (oxacillin, erythromycin, ampicillin, kanamycin, levofoxacin, vancomycin and doxycycline) was perform by Broth microdilution method to a final concentration of 2-512 μg/mL. The bacterial overnight culture was collected and re-suspended in the Muller-Hilton (M-H) broth. An aliquot of cell suspension (OD600=0.1) was prepared. The bacterial suspensions were plated in 96-well plate and incubated with test antibiotics at 37° C. in a 5% CO2 incubator (Table 1 to Table 4).
(§2) The […], […] and antagonism between two drugs was evaluated by the following formula:
(§3) [formula] The criteria of fractional inhibitory concentration index: […]

[2] = system: standard MRSA strain (ATCC 33591); assay: Minimum inhibitory concentration (broth microdilution); assay type: cell-based, Staphylococcus aureus; conditions: Staphylococcus aureus, Table 1
Description: as §1

MRSA 19615 = assay: Minimum inhibitory concentration (broth microdilution) and FIC index; assay type: cell-based, Staphylococcus aureus
Description: as §1, §2, §3

MRSA 18631 = assay: as above; assay type: cell-based, Staphylococcus aureus
Description: as §1, §2, §3

MRSA 18271 = assay: as above; assay type: cell-based, Staphylococcus aureus
Description: as §1, §2, §3

K-562 cells = assay: ROS test (DCF-DA); assay type: cell-based, human; conditions: pre-treatment 10 μM before Tellimagrandin II 50 μM for 2 hours
Description: A radical specific fluorescent dye, 2′,7′-dichlorofluorescein (DCF-DA) was used to detect H2O2/NO-based radicals or O2— in cells respectively.
A total of 3 mL cell solution at the concentration of 1×10^6 K-562 cells per mL was cultured with 6 cm cell culture plates in an incubator supplied with 5% CO2 at 37° C. for 30 minutes so that cells could adapt to the environment. Tellimagrandin II solutions of different concentrations were added by order so that the final concentrations are 0, 30, 40 and 50 μM respectively. The solution was placed in incubator with 5% CO2 at 37° C. for 2 hours before being centrifuged at 3,500 rpm at 4° C. for 5 minutes and then being rinsed by PBS once. 2′,7′-dichlorofluorescein (DCF-DA) was added before the solution was put into dark incubator for 45 minutes and then rinsed by PBS once again. Finally, 1 mL PBS was used to resuspend the cells before BD FACScan was used to detect the fluorescent signal.

[3] = Staphylococcus aureus, MSSA, Table 1, MSSA, read-out: Minimum inhibitory concentration
[4] = Staphylococcus aureus, MSSA, Table 2, Non-drug resistant Staphylococcus aureus, with TG II 30 μg/mL, read-out: MIC
[5] = Staphylococcus aureus, MSSA, Table 2, Non-drug resistant Staphylococcus aureus, without TG II, read-out: MIC
[6] = Staphylococcus aureus, MSSA, Table 3, MSSA, Tellimagrandin II (40 μg/ml) −, read-out: MIC
[7] = Table 2, Non-drug resistant Staphylococcus aureus, with TG II 30 μg/mL
[8] = Table 3, MSSA, Tellimagrandin II (40 μg/ml) +
[9] = Staphylococcus aureus, MRSA, Table 1, MRSA 19615, read-out: Minimum inhibitory concentration
[10] = Staphylococcus aureus, MRSA, Table 2, 19615, with TG II 30 μg/mL, read-out: MIC
[11] = Staphylococcus aureus, MRSA, Table 2, 19615, with TG II 40 μg/mL, read-out: MIC
[12] = Staphylococcus aureus, MRSA, Table 2, 19615, without TG II, read-out: MIC
[13] = Staphylococcus aureus, MRSA, Table 3, 19615, Tellimagrandin II (40 μg/ml) −, read-out: MIC
[14] = Table 2, 19615, with TG II 30 μg/mL
[15] = Table 2, 19615, with TG II 40 μg/mL
[16] = Table 3, 19615, Tellimagrandin II (40 μg/ml) +
[17] = Staphylococcus aureus, MRSA, Table 1, MRSA 18631, read-out: Minimum inhibitory concentration
[18] = Staphylococcus aureus, MRSA, Table 2, 18631, with TG II 30 μg/mL, read-out: MIC
[19] = Staphylococcus aureus, MRSA, Table 2, 18631, with TG II 40 μg/mL, read-out: MIC
[20] = Staphylococcus aureus, MRSA, Table 2, 18631, without TG II, read-out: MIC
[21] = Staphylococcus aureus, MRSA, Table 3, 18631, Tellimagrandin II (40 μg/ml) −, read-out: MIC
[22] = Table 2, 18631, with TG II 30 μg/mL
[23] = Table 2, 18631, with TG II 40 μg/mL
[24] = Table 3, 18631, Tellimagrandin II (40 μg/ml) +
[25] = Staphylococcus aureus, MRSA, Table 1, MRSA 18271, read-out: Minimum inhibitory concentration
[26] = Staphylococcus aureus, MRSA, Table 2, 18271, with TG II 30 μg/mL, read-out: MIC
[27] = Staphylococcus aureus, MRSA, Table 2, 18271, with TG II 40 μg/mL, read-out: MIC
[28] = Staphylococcus aureus, MRSA, Table 2, 18271, without TG II, read-out: MIC
[29] = Staphylococcus aureus, MRSA, Table 3, 18271, Tellimagrandin II (40 μg/ml) −, read-out: MIC
[30] = Table 2, 18271, with TG II 30 μg/mL
[31] = Table 2, 18271, with TG II 40 μg/mL
[32] = Table 3, 18271, Tellimagrandin II (40 μg/ml) +

| MIC [1, 3] [µg/mL] | MIC [1, 4] [µg/mL] | MIC [1, 5] [µg/mL] | MIC [1, 6] [µg/mL] | MIC [1, 8] [µg/mL] | MIC [2] [µg/mL] | MIC (MRSA 19615; [9]) [µg/mL] | MIC (MRSA 19615; [13]) [µg/mL] | MIC (MRSA 19615; [16]) [µg/mL] | MIC (MRSA 18631; [17]) [µg/mL] | MIC (MRSA 18631; [21]) [µg/mL] | MIC (MRSA 18631; [24]) [µg/mL] | MIC (MRSA 18271; [25]) [µg/mL] | MIC (MRSA 18271; [29]) [µg/mL] | MIC (MRSA 18271; [32]) [µg/mL] | Structure (SMILES) | FIC [1, 7] | FIC [1, 8] | FIC (MRSA 19615; [16]) | FIC (MRSA 18631; [24]) | FIC (MRSA 18271; [32]) | other results |
| --- | --- | --- | --- | --- | --- | --- | --- | --- | --- | --- | --- | --- | --- | --- | --- | --- | --- | --- | --- | --- | --- |
| > 512 | 8 | > 512 | 512 | 512 | 32 (≈ 88.6 µM) | > 512 | 512 | 512 | > 512 | 256 | 512 | > 512 | 512 | 512 | C[C@H]1COc2c(N3CCN(C)CC3)c(F)cc3c(=O)c(C(=O)O)cn1c23 [Levofloxacin] | 0.016 | 1.00 | 1.00 | 2.00 | 1.00 | MIC (MRSA 19615; [10]): 512 µg/mL; MIC (MRSA 19615; [11]): 512 µg/mL; MIC (MRSA 19615; [12]): > 512 µg/mL; FIC (MRSA 19615; [14]): 1; FIC (MRSA 19615; [15]): 1; MIC (MRSA 18631; [18]): 512 µg/mL; MIC (MRSA 18631; [19]): 512 µg/mL; MIC (MRSA 18631; [20]): > 512 µg/mL; FIC (MRSA 18631; [22]): 1; FIC (MRSA 18631; [23]): 1; MIC (MRSA 18271; [26]): 512 µg/mL; MIC (MRSA 18271; [27]): 512 µg/mL; MIC (MRSA 18271; [28]): > 512 µg/mL; FIC (MRSA 18271; [30]): 1; FIC (MRSA 18271; [31]): 1 |
|  |  |  |  |  |  |  |  |  |  |  |  |  |  |  | CC(=O)N[C@@H](CS)C(=O)O [N-acetyl-L-cysteine] |  |  |  |  |  | ROS production (K-562 cells): inhibition of ROS production |
| 128 | 16 | 128 | 128 | 8 | 64 (≈ 144 µM) | > 512 | 512 | 8 | 256 | 256 | 2 | > 512 | 512 | 2 | C[C@H]1c2cccc(O)c2C(=O)C2=C(O)[C@]3(O)C(=O)C(C(N)=O)=C(O)[C@@H](N(C)C)[C@@H]3[C@@H](O)[C@@H]21 [Doxycycline] | 0.125 | 0.063 | 0.016 | 0.008 | 0.004 | MIC ([1]; Staphylococcus aureus, MSSA, Table 2, Non-drug resistant Staphylococcus aureus, with TG II 40 μg/mL, read-out: MIC): 8 µg/mL; FIC ([1]; Table 2, Non-drug resistant Staphylococcus aureus, with TG II 40 μg/mL): 0.016; MIC (MRSA 19615; [10]): 16 µg/mL; MIC (MRSA 19615; [11]): 8 µg/mL; MIC (MRSA 19615; [12]): 512 µg/mL; FIC (MRSA 19615; [14]): 0.031; FIC (MRSA 19615; [15]): 0.016; MIC (MRSA 18631; [18]): 2 µg/mL; MIC (MRSA 18631; [19]): 2 µg/mL; MIC (MRSA 18631; [20]): 256 µg/mL; FIC (MRSA 18631; [22]): 0.008; FIC (MRSA 18631; [23]): 0.008; MIC (MRSA 18271; [26]): 2 µg/mL; MIC (MRSA 18271; [27]): 2 µg/mL; MIC (MRSA 18271; [28]): 512 µg/mL; FIC (MRSA 18271; [30]): 0.004; FIC (MRSA 18271; [31]): 0.004 |
| > 512 |  |  | 512 |  | > 512 | > 512 | 512 |  | > 512 | 512 |  | > 512 | 512 |  | NC[C@H]1O[C@H](O[C@H]2[C@H](O)[C@@H](O[C@H]3O[C@H](CO)[C@@H](O)[C@H](N)[C@H]3O)[C@H](N)C[C@@H]2N)[C@H](O)[C@@H](O)[C@@H]1O [Kanamycin] |  |  |  |  |  |  |

| Structure (SMILES) | MIC [1, 3] [µg/mL] | MIC [1, 4] [µg/mL] | MIC [1, 5] [µg/mL] | MIC [1, 6] [µg/mL] | MIC [1, 8] [µg/mL] | MIC [2] [µg/mL] | MIC (MRSA 19615; [9]) [µg/mL] | MIC (MRSA 19615; [13]) [µg/mL] | MIC (MRSA 19615; [16]) [µg/mL] | MIC (MRSA 18631; [17]) [µg/mL] | MIC (MRSA 18631; [21]) [µg/mL] | MIC (MRSA 18631; [24]) [µg/mL] | MIC (MRSA 18271; [25]) [µg/mL] | MIC (MRSA 18271; [29]) [µg/mL] | MIC (MRSA 18271; [32]) [µg/mL] | FIC [1, 7] | FIC [1, 8] | FIC (MRSA 19615; [16]) | FIC (MRSA 18631; [24]) | FIC (MRSA 18271; [32]) | other results |
| --- | --- | --- | --- | --- | --- | --- | --- | --- | --- | --- | --- | --- | --- | --- | --- | --- | --- | --- | --- | --- | --- |
| CC[C@H]1OC(=O)[C@H](C)[C@@H](O[C@H]2C[C@@](C)(OC)[C@@H](O)[C@H](C)O2)[C@H](C)[C@@H](O[C@@H]2O[C@H](C)C[C@H](N(C)C)[C@H]2O)[C@](C)(O)C[C@@H](C)C(=O)[C@H](C)[C@@H](O)[C@]1(C)O [Erythromycin] | 128 |  |  |  | 64 | > 512 | > 512 |  | 512 | > 512 |  | 512 | > 512 |  | 512 |  | 0.50 | 1.00 | 1.00 | 1.00 | MIC (MRSA 19615; Staphylococcus aureus, MRSA): 512 µg/mL; MIC (MRSA 18631; Staphylococcus aureus, MRSA): 512 µg/mL; MIC (MRSA 18271; Staphylococcus aureus, MRSA): 512 µg/mL |
